Experiment [1] addresses T1, Monoglyceride lipase (Mus musculus, UniProt O35678).
T1 sequence (O35678 whole entry): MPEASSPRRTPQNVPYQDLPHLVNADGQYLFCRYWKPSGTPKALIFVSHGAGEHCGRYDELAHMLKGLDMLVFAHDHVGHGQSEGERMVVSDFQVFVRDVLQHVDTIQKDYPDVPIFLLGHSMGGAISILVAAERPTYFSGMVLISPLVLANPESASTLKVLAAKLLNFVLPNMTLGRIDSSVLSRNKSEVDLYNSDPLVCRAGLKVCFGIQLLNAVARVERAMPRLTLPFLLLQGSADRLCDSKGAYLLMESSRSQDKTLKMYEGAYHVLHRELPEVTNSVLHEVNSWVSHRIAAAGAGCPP
The experiment can be described thus: Preparation of Mouse Brain Proteomes from Inhibitor Treated Mice: Inhibitors were administered to wild-type C57B1/6J by oral gavage in a vehicle of polyethylene glycol. Each animal was sacrificed 4 h following administration and brain proteomes were prepared and analyzed according to previously established methods (See Niphakis, M. J., et al. (2011) ACS Chem. Neurosci. and Long, J. Z., et al. Nat. Chem. Biol. 5:37-44).

For experiment [2], the target named is T2, Monoglyceride lipase (Homo sapiens, UniProt Q99685).
T2 sequence (Q99685 whole entry): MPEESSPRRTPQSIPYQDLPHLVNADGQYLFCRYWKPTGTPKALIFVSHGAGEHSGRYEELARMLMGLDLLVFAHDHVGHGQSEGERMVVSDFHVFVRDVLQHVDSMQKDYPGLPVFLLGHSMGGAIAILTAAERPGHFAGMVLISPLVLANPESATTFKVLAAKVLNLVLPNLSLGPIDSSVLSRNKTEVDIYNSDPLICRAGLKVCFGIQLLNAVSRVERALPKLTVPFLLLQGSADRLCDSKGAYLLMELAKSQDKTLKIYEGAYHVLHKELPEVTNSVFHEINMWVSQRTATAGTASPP
The experiment can be described thus: In Vitro Competitive Activity-Based Protein Profiling: Proteomes (human prefrontal cortex or cell membrane fractions) (50 μL, 1.0 mg/mL total protein concentration) were preincubated with varying concentrations of inhibitors at 37° C. After 30 min, FP-Rh or HT-01 (1.0 μL, 50 μM in DMSO) was added and the mixture was incubated for another 30 min at room temperature. Reactions were quenched with SDS loading buffer (15 μL—4×) and run on SDS-PAGE.

Take `Cc1ccc2cc(C(=O)N3CCCC34CCN(C(=O)OC(C(F)(F)F)C(F)(F)F)CC4)sc2c1`: the half-inhibitory concentration (IC50) (commonly the concentration needed to halve the response being measured) against Monoglyceride lipase [1] is less than 100 nM. As for `O=C(OC(C(F)(F)F)C(F)(F)F)N1CCC2(CCCN2Cc2cc3cc(Cl)c(Cl)cc3[nH]2)CC1`, at Monoglyceride lipase [2], the IC50 was less than 100 nM. In the case of `COc1cccc2cc(CN3CCCC34CCN(C(=O)OC(C(F)(F)F)C(F)(F)F)CC4)[nH]c12`, the IC50 on Monoglyceride lipase [2] and against Monoglyceride lipase [1] was less than 100 nM in each case. As to `O=C(OC(C(F)(F)F)C(F)(F)F)N1CCC2(CCCN2C(=O)c2cc3ccc(F)cc3s2)CC1`, the IC50 on Monoglyceride lipase [1] is less than 100 nM. For `COCCN(C(=O)C1(c2ncccn2)CC1)C1(C)CCN(C(=O)OC(C(F)(F)F)C(F)(F)F)CC1`, the IC50 at Monoglyceride lipase [2] is less than 100 nM. Regarding `Cc1c(CN2CCCC23CCN(C(=O)OC(C(F)(F)F)C(F)(F)F)CC3)[nH]c2ccc(Cl)cc12`, the half-maximal inhibitory concentration (IC50) at Monoglyceride lipase [2] and at Monoglyceride lipase [1] was less than 100 nM throughout.
